“And” between values parts separate entries of the source, which are not always exact repeats. Equal values may be shown once.
Columns and labels:
[1] = tested on: SW620 cells; assay: LDH release assay, SW620; format: cell-based, human; conditions: 72 h
Method: (§1) The presence of lactate dehydrogenase (LDH) in culture medium indicates a disturbance of the integrity of the cellular membrane. The LDH activity was performed after 72 h incubation of cells (1 × 10^4 cells per well) in 96-well plates with selected compounds according to manufacturer’s protocol (Roche Diagnostics, Germany), as was described by Chrzanowska et al.. Compound mediated cytotoxicity was determined using equation: ((A test sample−A low control)/ (A high control−A low control)) × 100% (A-absorbance), where “low control” means cells in medium with 2% FBS without tested compounds, and “high control” means cells incubated in medium with 2% FBS and 1% Triton X-100 (100% LDH release). The cytotoxicity was expressed as percentage of LDH release as compared with the maximum release of LDH from Triton-X-100-treated cells.

[2] = tested on: SW480 cells; assay: Annexin V-FITC/PI flow cytometry, SW480; format: cell-based, human; conditions: for apoptosis of SW480 cells: at 4 μM (supplement text)
Method: The cells were cultured and harvested under the conditions described in the cell culture section. […] The effect of these compounds on the process of early and late apoptosis and necrosis was determined, as described previously, by dual staining with annexin V-FITC and propidium iodide according to manufacturer’s protocol (Becton Dickinson). The cells that were annexin V-FITC positive and PI-negative were identified as early apoptotic and annexin V-FITC and PI-positive as late apoptotic or necrotic.

[3] = tested on: interleukin-6 (IL-6); assay: IL-6 level assay (ELISA); format: cell-based, human; conditions: 72 h; for reduction of IL-6 secretion, times: PC3, IC50 dose; for reduction of IL-6 level, times / decrease of IL-6 level: SW480, IC50 dose, vs control
Method: IL-6 concentration at all studied cancer cells and normal HaCaT cell lines was measured by ELISA kit (Diaclon SAS Besancon Cedex, France). […] IL-6 in cell culture supernatant was measured using enzyme-linked immunosorbent assay in accordance with the manufacturer’s protocol.

[4] = tested on: Superoxide dismutase [Cu-Zn] (SODC_HUMAN); assay: LC–MS proteome analysis, SODC; format: cell-based, Homo sapiens; conditions: for Protein Intensity, % (SODC): IC50 concentration, % of control
Method: (§2) Enzymes involved in oxidoreductive potential were analyzed in the cell lysates obtained after treatment cells with selected conjugates for 24 h. Cells were washed with phosphate-buffered saline (PBS) and harvested, then centrifuged at 1000× g for 10 min. Then, lysis buffer (containing protease inhibitor, 1% RIPA Lysis and Extraction Buffer (ThermoFisher)) and cold PBS were added, and samples were sonicated three times in ice bath. Next, the cell lysates were centrifuged at 14,000× g at 4 °C for 15 min, and then supernatants were stored at […] before use. Protein concentration was measured by the Bradford method.
(§3) Normalized protein concentrations (5 µg) from cell lysate were precipitated by ice cold (–20 °C) acetonitrile (ACN, Merck, in ratio 1:4). Then, samples were centrifuged (–9 °C, 30 min., 18,000× g), the supernatant was discarded and ACN excess was evaporated using a vacuum centrifuge (5 min., room temp.). Protein pellet was dissolved in 40 mM ammonium bicarbonate. An amount of 500 mM dithiothreitol (DTT, with final concentration 20 mM) and 1 M iodoacetamide (IAA, with final concentration 40 mM) were used for reduction and alkylation processes. After 16 h of incubation in 37 °C with Trypsin Gold (Promega), digested protein samples were diluted with 0.1% formic acid (ThermoFisher) and centrifuged (+2 °C, 30 min, 18,000× g).
(§4) LC–MS analysis was carried out with the use of nanoUHPLC (nanoElute, Bruker) coupled by CaptiveSpray (Bruker) to ESI-Q-TOF mass spectrometer (Compact, Bruker). Two-column separation method was used, i.e., pre-column (300 µm × 5 mm, C18 PepMap 100, 5 µm, 100Å, Thermo Scientific) and Aurora separation column with CSI fitting (75 µm × 250 mm, C18 1.6 µm) in gradient 2% B to 35% B in 90 min with the 300 nL/min flow rate. Mobile phases (A) 0.1% formic acid in water and (B) 0.1% formic acid in ACN were used.
(§5) Sample ionizations were performed at a gas flow of 3.0 L/min, temperature of 150 °C and voltage of the capillary at 1600 V. The quadrupole energy was fixed to 5.0 eV and collision chamber energy 7.0 eV, with an ion transfer time of 90 µs. The ions were analyzed in the positive polarity mode in the range 150–2200 m/z, with the acquisition frequency of the 1 Hz spectrum, as well as with the autoMS/MS system.
(§6) The collected spectra were analyzed and calibrated using DataAnalysis software (Bruker) and then identified in ProteinScape (Bruker) by the MASCOT server. Protein identification was conducted using the online SwissProt and NCBIprot databases, and their references and biological significance were identified using Reactome.org, String.org and KEGG.

[5] = tested on: Superoxide dismutase [Mn], mitochondrial (SODM_HUMAN); assay: LC–MS proteome analysis, SODM; format: cell-based, Homo sapiens; conditions: IC50 concentration, % of control
Method: as §2, §3, §4, §5, §6

[6] = tested on: Peroxiredoxin-1 (PRDX1_HUMAN); assay: LC–MS proteome analysis, PRDX1; format: cell-based, Homo sapiens; conditions: IC50 concentration, % of control
Method: as §2, §3, §4, §5, §6

[7] = tested on: Peroxiredoxin-2 (PRDX2_HUMAN); assay: LC–MS proteome analysis, PRDX2; format: cell-based, Homo sapiens; conditions: IC50 concentration, % of control
Method: as §2, §3, §4, §5, §6

[8] = tested on: Peroxiredoxin-4 (PRDX4_HUMAN); assay: LC–MS proteome analysis, PRDX4; format: cell-based, Homo sapiens; conditions: for Protein Intensity, % (PRDX4): IC50 concentration, % of control
Method: as §2, §3, §4, §5, §6

[9] = tested on: SW480 cells; assay: LDH release assay, SW480; format: cell-based, human; conditions: 72 h
Method: as §1

[10] = tested on: PC3 cells; assay: LDH release assay, PC3; format: cell-based, human; conditions: 72 h
Method: as §1

SMILES	LDH release ([1]; SW620, 10 μM) [%]	LDH release ([1]; SW620, 60 μM) [%]	early apoptosis, % of cells ([2]; SW480, IC50 dose, 72 h)	apoptosis of SW480 cells [2] [%]	reduction of IL-6 secretion, times [3]	Protein Intensity, % (SODC) ([4]; PC3, 24 h) [%]	Protein Intensity, % (SODC) ([4]; SW480, 24 h) [%]	Protein Intensity, % (SODC) ([4]; SW620, 24 h) [%]	Protein Intensity, % (SODM) ([5]; PC3, 24 h)	Protein Intensity, % (SODM) ([5]; SW480, 24 h) [%]	Protein Intensity, % (SODM) ([5]; SW620, 24 h) [%]	Protein Intensity, % (PRDX1) ([6]; PC3, 24 h) [%]	Protein Intensity, % (PRDX1) ([6]; SW480, 24 h) [%]	Protein Intensity, % (PRDX1) ([6]; SW620, 24 h) [%]	Protein Intensity, % (PRDX2) ([7]; PC3, 24 h) [%]	Protein Intensity, % (PRDX2) ([7]; SW480, 24 h) [%]	Protein Intensity, % (PRDX2) ([7]; SW620, 24 h) [%]	Protein Intensity, % (PRDX4) ([8]; PC3, 24 h) [%]	Protein Intensity, % (PRDX4) ([8]; SW480, 24 h) [%]	Protein Intensity, % (PRDX4) ([8]; SW620, 24 h) [%]	other results
O=[N+]([O-])c1cc([N+]2=C(Nc3ccccc3Br)[S][Cu-2]23[S]C(Nc2ccccc2Br)=[N+]3c2ccc(Cl)c([N+](=O)[O-])c2)ccc1Cl [Compound 1, Copper (II) complex with 1-(2-bromophenyl)-3-(4-chloro-3-nitrophenyl)thiourea]	22	48	45.18% ± 3.9%	47	1.5 times	58.5	68.2	72.7	29% and 29.1%	67.8	88.8	73.9	95.9	96.1	42.3	95.5	92.1	72.6	67.6	79.4	reduction of IL-6 level, times [3]: 1.9 times; reduction of IL-6 concentration, times ([3]; SW620, IC50 dose): 2.4 times
O=[N+]([O-])c1cc([N+]2=C(Nc3ccc(I)cc3)[S][Cu-2]23[S]C(Nc2ccc(I)cc2)=[N+]3c2ccc(Cl)c([N+](=O)[O-])c2)ccc1Cl [Compound 8, Copper (II) complex with 1-(4-iodophenyl)-3-(4-chloro-3-nitrophenyl)thiourea]	23	42.4	48.9% ± 3.4%	47	almost twofold	33.0	88.2	64.5	29.4%	94.3	92.7	52.3	84.4	93.5	39.9	78.3	88.6	30.8	78.2	93.9	LDH release ([9]; SW480, 20 μM): 42%; LDH release ([9]; SW480, 40 μM): 46.4%; LDH release ([9]; SW480, 60 μM): 58%; LDH release ([10]; PC3, 10 μM): 27.2%; LDH release ([10]; PC3, 40 μM): 56.4%; LDH release ([10]; PC3, 60 μM): 64%; late apoptosis, % of cells ([2]; SW480, IC50 dose, 72 h): 20.7% ± 2.8%; reduction of IL-6 level, times [3]: twofold
O=[N+]([O-])c1cc([N+]2=C(Nc3ccccc3F)[S][Cu-2]23[S]C(Nc2ccccc2F)=[N+]3c2ccc(Cl)c([N+](=O)[O-])c2)ccc1Cl [Compound 7, Copper (II) complex with 1-(2-fluorophenyl)-3-(4-chloro-3-nitrophenyl)thiourea]	–	30.2	≤ 40%	–	–	15.4	40.6	44.7	25.2%	65.1	45.3	46.5	71.6	83.2	32.2	69.4	58.6	35.7	58.3	73.0	decrease of IL-6 level [3]: ≤ 30%; reduction of SODC intensity ([4]; SW480, IC50 concentration): 59.4%; reduction of PRDX4 intensity ([8]; SW480, IC50 concentration): 41.7%
O=[N+]([O-])c1cc([N+]2=C(Nc3ccc(Br)cc3)[S][Cu-2]23[S]C(Nc2ccc(Br)cc2)=[N+]3c2ccc(Cl)c([N+](=O)[O-])c2)ccc1Cl [Compound 3, Copper (II) complex with 1-(4-bromophenyl)-3-(4-chloro-3-nitrophenyl)thiourea]	–	–	≤ 40%	–	–	30.9	75.3	78.2	31.2%	77.7	77.1	47.8	88.5	89.0	47.3	93.7	71.6	61.1	60.1	76.4	decrease of IL-6 level [3]: ≤ 30%

From article PMC8584173, “The Cytotoxic Effect of Copper (II) Complexes with Halogenated 1,3-Disubstituted Arylthioureas on Cancer and Bacterial Cells” (International Journal of Molecular Sciences, 2021)
